Results published in patent publication US20050042213A1, “Methods and pharmaceutical compositions for modulating heparanase activation and uses thereof” (InSight Biopharmaceuticals Ltd., priority 2003, published 2005).

Legend:
heparanase (H53) = target: T1, heparanase (H53) (Homo sapiens, UniProt Q9Y251, K307R); experiment: Heparanase activity inhibition (H53), DMB assay; assay type: biochemical
T1 sequence (Q9Y251 158-543 K307R limits assumed): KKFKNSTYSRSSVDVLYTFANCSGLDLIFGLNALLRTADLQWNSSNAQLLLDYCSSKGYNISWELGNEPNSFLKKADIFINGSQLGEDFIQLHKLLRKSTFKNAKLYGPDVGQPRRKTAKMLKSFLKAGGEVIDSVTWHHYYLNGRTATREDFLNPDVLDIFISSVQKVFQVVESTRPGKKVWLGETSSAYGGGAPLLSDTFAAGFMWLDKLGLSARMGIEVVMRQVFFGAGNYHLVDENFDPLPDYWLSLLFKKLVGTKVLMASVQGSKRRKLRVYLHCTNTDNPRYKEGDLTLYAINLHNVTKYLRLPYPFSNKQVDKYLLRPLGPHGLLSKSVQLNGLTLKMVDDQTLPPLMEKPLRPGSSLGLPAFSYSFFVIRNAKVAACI
T1 sequence (Q9Y251 36-109 limits assumed): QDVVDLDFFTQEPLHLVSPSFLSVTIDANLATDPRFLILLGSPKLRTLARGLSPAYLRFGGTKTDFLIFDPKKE
Method: At the end of the incubation, the cells were lysed by three consecutive cycles of freezing and thawing in a −80° C. Freezer and a 37° C. shaker. Formation of active heparanase was detected by determination of heparanase activity in DMB assay as described in patent application U.S. Pat. No. 6,190,875B.

HUVEC cell = experiment: Cell Migration Assay (Boyden chamber); assay type: cell-based; settings: Homo sapiens, HUVEC cells, 5 h, read-out: Inhibition of chemotaxis IC50
Method: (§1) Cord formation and cell migration assays were executed following explicit directives provided by the inventors of the present invention by the National Cancer Institute (Biological Testing Branch, Developmental Therapeutics Program, DCTD, NCI, Fairview Center, Suite 205, 1003 West 7th Street, Frederick, Md. 21701-8527).
Cell Migration Assay—Migration was assessed using a 48-well Boyden chamber including 8 μm pore size collagen-coated (10 μg/ml rat tail collagen; Collaborative Laboratories) polycarbonate filters (Osmonics, Inc.). The bottom chamber wells included 27-29 μl of DMEM medium alone (baseline) or medium containing chemo-attractant (bFGF, VEGF or Swiss 3T3 cell conditioned medium). The top chambers included 45 μl of HUVEC cell suspension (1×10^6 cells/ml) prepared in DMEM+1% BSA with or without the test compound. Followinf 5 h of incubation at 37° C., the membrane was rinsed with PBS, fixed and stained in Diff-Quick solutions. The filter was placed on a glass slide with the migrated cells facing down and cells on top were removed using a Kimwipe. The testing was performed in 4-6 replicates where five fields were counted from each well. Negative unstimulated control values were subtracted from stimulated control and drug treated values. Data wad plotted as mean migrated cell±S.D. IC50 was calculated from the plotted data.

β-FGF = target: T2, β-FGF (Homo sapiens, UniProt P09038); experiment: Elisa assay for binding of β-FGF to heparin; settings: inhibition of β-FGF binding to heparin
T2 construct: purchased Sigma F0291
T2 sequence (P09038 143-288): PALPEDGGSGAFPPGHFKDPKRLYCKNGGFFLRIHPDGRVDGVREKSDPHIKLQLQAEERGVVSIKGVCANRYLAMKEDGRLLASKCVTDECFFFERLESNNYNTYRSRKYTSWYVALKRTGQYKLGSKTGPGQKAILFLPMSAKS
Method: Elisa assay for determination of binding of β-FGF to heparin—96 well microplates were coated overnight with Heparin-albumin (Lizard) and blocked with 1% BSA in PBS with 0.05% Tween and 0.01% thimerosal for 2 hrs. β-FGF was added to the plates at a concentration of 0.8 ng/ml and incubated for 45 min at 23-25° C. The amount of β-FGF bound to heparin was detected using anti-FGF monoclonal antibody (Sigma Cat. # F6162) at a concentration of 2.5 ng/ml and secondary antibodies Sheep anti-mouse IgG linked to horseradish peroxidase (1:3000). TMB (Pierce Cat. #34021) was used as a substrate for peroxidase.
The plates were read at 450 nm with a reference wavelength of 630 nm using a VERSAmax plate reader. […] Percent inhibition was calculated as compared with the control reactions pre-incubated with 1% DMSO only.

[1] = test system: MPanc-96 pancreatic tumor cells; experiment: MPanc-96 pancreatic tumor xenograft in SCID mice; assay type: in vivo
Method: Mpanc-96 tumor cell injection—MPanc-96 pancreatic tumor cells were obtained from the ATCC(CCL-2380). On day 1, cells (5×10^6 cells/0.2 ml RPMI+FBS) were subcutaneously injected to the right flank, midway between the axillary and inguinal regions, of SCID mice. Prior to injection the cells were mixed by gentle vortexing. The cells were injected using a 25G needle, and the appearance of a bulge was observed. Following injection to animals, cells were counted in the leftover tubes with trypan blue, and re-cultured to test proliferation.
Compound 5 injections—Tumors were measured prior to inhibitor injection. […] The animals were injected intraperitoneally, daily, twice a day, starting 6 days after tumor cells injection, with 50 μl plain DMSO or 50 μl of Compound 5 in DMSO (8 mg/ml in DMSO).
Tumor growth—Tumor size was measured in two perpendicular dimensions, twice a week using digital calipers. Volumes were estimated using the formula (α^2×β)/2, where α is the shorter of the two dimensions, and β is the longer of the two dimensions.
Study termination—At the end of the study, 21 days following tumor cell injection, animals were euthanized by IP veterinary penthal injection. In case of severe weight loss (>20%), a tumor>1000 mm^3 or depression, an animal was euthanized prior to the study's termination day. Upon animal death prior to the end of the study, body weight and tumor size were measured.

HUVEC cells = experiment: Cord Formation Assay; assay type: cell-based; settings: Homo sapiens; HUVEC cells on matrigel, 24 h; read-out: Inhibition of cord formation IC50
Method: as §1
Cord Formation Assay—Matrigel (60 μl of 10 mg/ml; Collaborative Lab # 35423) was placed in each well of an ice-cold 96-well plate. The plate was incubated at room temperature for 15 minutes and then transferred to 37° C. for 30 minutes to permit matrigel polymerization. Concomitantly with plate coating, HUVEC cells were diluted in EGM-2 (Clonetic # CC3162) at a concentration of 2×10^5 cells/ml. Each test compound was prepared at a 2 fold higher concentration than desired (5 concentration levels) using the same medium. Cells (500 μl) and 2× drug (500 μl) were mixed and 200 μl of this suspension were placed in duplicates on the polymerized matrigel. Following 24 h incubation, triplicate pictures were taken for each concentration using a Bioquant Image Analysis system. Drug effect (IC50) was assessed by comparing to untreated controls and measuring the length of cords formed and number of junctions.

heparanase activity inhibition (H53) in addition to inhibition of pro-heparanase activation (heparanase (H53)): dual activity | IC50 (heparanase (H53); heparanase activity inhibition (H53), NI = no inhibition): 12.5 µM | IC50 (β-FGF): 6.1 µM
Structure (SMILES): O=C(O)CCCN1C(=O)C(=Cc2ccc(-c3ccc([N+](=O)[O-])cc3)o2)SC1=S [Compound 5]
IC50 (HUVEC cell): 0.4 µM | reduction of tumor volume ([1]; 10 mg/kg/day, compared with 40 mg/kg/day): twice as much reduction | reduction of tumor volume ([1]; 40 mg/kg/day, intraperitoneally, SCID mice): 35% | tumor growth in SCID mice ([1]; mouse, in vivo): inhibited tumor growth in SCID mice efficiently | IC50 (HUVEC cells): 3.9 µM
